{"source": "BindingDB's records for doi:10.1021/jm9606507", "about": "(Warner-Lambert, 1997)", "experiment": "Inhibition of Endothelin A receptor mediated (ET-1) release of arachidonic acid from rabbit renal artery vascular smooth muscle cells", "data": [{"smiles": "COc1ccc(C(=O)/C(Cc2cc(OC)c(OC)c(OC)c2)=C(\\C(=O)O)c2ccc3c(c2)OCO3)cc1C", "note": "[Sodium; (Z)-2-benzo[1,3]dioxol-5-yl-4-(4-methoxy-3-methyl-phenyl)-4-oxo-3-(3,4,5-trimethoxy-benzyl)-but-2-enoate]", "values": [{"measurement": "IC50", "value": 0.98, "unit": "nM"}]}]}
